One data set has as its system integrin α4β1. Description: Integrin α4β1-mediated cell adhesion assay (Jurkat cells on VCAM). Type of data set: cell-based. The following applies: for α4β1/α4β7: selectivity ratio of Jurkat (α4β1)/VCAM-1 IC50 to RPMI-8866 (α4β7)/MadCAM-1 IC50; for pIC50: Jurkat cells, VCAM coated plate, read-out: Jurkat (α4β1)/VCAM-1 IC50. As to the method: VCAM was formulated into a final concentration of 0.5 µg/ml with a coating buffer, 50 µl of the solution was transferred to a 96-well plate, and the plate was coated with same at 4°C overnight. The plate was washed with coating buffer three times, then 150 µl of a blocking solution (coating buffer containing 1% BSA) was added, and the plate was blocked at 37°C for 1 h. Jurkat cells were collected, washed twice using DPBS buffer, and then resuspended to 4 × 10^6 cells/ml with an action buffer. 50 µl of the cell suspension was transferred to a 96-well plate so that the cell density reached 2 × 10^5 cells/well. Then 1 µl of the test compound at different concentration or DMSO was added and the plate was incubated at 37°C for 1 h. The plate was washed with coating buffer to remove non-adherent cells. 50 µl of a substrate (4-nitrophenyl-N-acetyl-β-D-glucosaminide) was added and the plate was incubated at 37°C for 2 h. Finally, 90 µl of a termination solution (50 mM glycine and 5 mM EDTA, pH 10.4) was added. The OD value of the plate was read at 405 nm. • Coating buffer: DMEM+ 20 mM HEPES+ 0.4 mM MnCl2 • Action buffer: DMEM+ 20 mM HEPES+ 0.1% BSA+0.4 mM MnCl2 • DMEM: dulbecco's modified eagle medium; • HEPES: 2-[4-(2-hydroxyethyl)piperazin-1-yl]ethanesulfonic acid Table 1 Results of effects of compounds on α4β7- and α4β1-mediated cell adhesion

The nature of data set [1]: Pharmacokinetic test in mice. The data set is classed as in vivo. As to conditions: male BALB/c mice, plasma. As to the method: Experimental animals: male BALB/c mice, 20-25 g, 6 mice/compound. purchased from Chengdu Ddossy Experimental Animals Co., Ltd.
Experimental design: on the day of the test, 6 BALB/c mice were randomly grouped according to their body weights. The animals were fasted with water available for 12 to 14 h one day before the administration and were fed 4 h after the administration. Table 2. Administration information
Before and after the administration, 0.06 mL of blood was taken from the orbit of the animals under isoflurane anesthesia and placed in an EDTAK2 centrifuge tube. The blood was centrifuged at 5000 rpm and 4°C for 10 min to collect plasma. The blood collection time points for the intravenous group and intragastric group were both 0 min, 5 min, 15 min, 30 min, 1 h, 2 h, 4 h, 6 h, 8 h, and 24 h. Before analysis and detection, all samples were stored at -80°C, and the samples were quantitatively analyzed by LC-MS/MS.

Data set [2] is described as follows: Test of stability in liver microsomes. Type of data set: in vitro ADME. The following applies: Monkey liver microsomes, 1 µM, 37°C, NADPH. Background: Liver microsomes are a subcellular fraction often used to study metabolism.
Procedure: (§1) In this experiment, liver microsomes of three species, including monkey, rat and mouse, were used as in vitro models to evaluate the metabolic stability of the test compound.
(§2) At 37°C, 1 µM of the test compound was co-incubated with microsomal protein and coenzyme NADPH. At given time points of the reaction (5 min, 10 min, 20 min, 30 min, and 60 min), the reaction was terminated by adding ice-cold acetonitrile containing an internal standard. The LC-MS/MS method was used to measure the concentration of the test compound in the sample. T1/2 was calculated using the natural logarithm (In) of the residual rate of the drug in the incubation system and the incubation time. In addition, the intrinsic clearance in liver microsomes CLint(mic) and the intrinsic clearance in liver CLint(Liver) were further calculated.
Data set [3] in a line: Test of stability in liver microsomes. The data set is classed as in vitro ADME. The following applies: Rat liver microsomes, 1 µM, 37°C, NADPH.
Procedure: as §1, §2
A short description of data set [4]: Test of stability in liver microsomes. The data set is classed as in vitro ADME, mouse. The following applies: Mice liver microsomes, 1 µM, 37°C, NADPH.
Procedure: as §1, §2
The target of another data set is T1, integrin α4β7 (Homo sapiens, UniProt P13612+P26010).
T1 sequence (P13612 34-1032): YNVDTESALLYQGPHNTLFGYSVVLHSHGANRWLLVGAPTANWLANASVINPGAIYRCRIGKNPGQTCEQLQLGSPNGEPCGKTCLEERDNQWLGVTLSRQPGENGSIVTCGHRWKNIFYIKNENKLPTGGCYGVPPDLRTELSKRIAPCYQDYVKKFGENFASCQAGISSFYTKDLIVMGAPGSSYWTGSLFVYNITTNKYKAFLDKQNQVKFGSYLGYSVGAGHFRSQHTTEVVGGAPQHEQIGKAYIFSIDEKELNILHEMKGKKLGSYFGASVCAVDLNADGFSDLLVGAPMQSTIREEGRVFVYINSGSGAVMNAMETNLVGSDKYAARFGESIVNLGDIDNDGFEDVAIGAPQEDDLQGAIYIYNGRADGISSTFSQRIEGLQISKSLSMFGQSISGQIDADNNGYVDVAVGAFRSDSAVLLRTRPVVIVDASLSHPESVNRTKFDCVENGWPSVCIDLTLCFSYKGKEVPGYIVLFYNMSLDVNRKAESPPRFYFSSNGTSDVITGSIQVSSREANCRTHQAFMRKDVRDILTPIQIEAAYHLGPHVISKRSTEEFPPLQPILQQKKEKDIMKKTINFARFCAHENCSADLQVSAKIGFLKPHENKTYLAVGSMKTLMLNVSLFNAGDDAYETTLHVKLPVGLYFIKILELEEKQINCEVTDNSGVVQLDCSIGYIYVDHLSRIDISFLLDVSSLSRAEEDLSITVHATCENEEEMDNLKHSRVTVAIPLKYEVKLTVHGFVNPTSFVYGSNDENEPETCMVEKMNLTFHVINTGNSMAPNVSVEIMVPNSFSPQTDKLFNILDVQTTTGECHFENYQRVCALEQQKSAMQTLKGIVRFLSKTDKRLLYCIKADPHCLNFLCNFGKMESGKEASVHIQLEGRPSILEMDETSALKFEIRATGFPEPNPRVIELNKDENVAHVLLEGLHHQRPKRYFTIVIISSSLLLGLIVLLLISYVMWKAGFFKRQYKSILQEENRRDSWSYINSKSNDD
T1 sequence (P26010 20-798): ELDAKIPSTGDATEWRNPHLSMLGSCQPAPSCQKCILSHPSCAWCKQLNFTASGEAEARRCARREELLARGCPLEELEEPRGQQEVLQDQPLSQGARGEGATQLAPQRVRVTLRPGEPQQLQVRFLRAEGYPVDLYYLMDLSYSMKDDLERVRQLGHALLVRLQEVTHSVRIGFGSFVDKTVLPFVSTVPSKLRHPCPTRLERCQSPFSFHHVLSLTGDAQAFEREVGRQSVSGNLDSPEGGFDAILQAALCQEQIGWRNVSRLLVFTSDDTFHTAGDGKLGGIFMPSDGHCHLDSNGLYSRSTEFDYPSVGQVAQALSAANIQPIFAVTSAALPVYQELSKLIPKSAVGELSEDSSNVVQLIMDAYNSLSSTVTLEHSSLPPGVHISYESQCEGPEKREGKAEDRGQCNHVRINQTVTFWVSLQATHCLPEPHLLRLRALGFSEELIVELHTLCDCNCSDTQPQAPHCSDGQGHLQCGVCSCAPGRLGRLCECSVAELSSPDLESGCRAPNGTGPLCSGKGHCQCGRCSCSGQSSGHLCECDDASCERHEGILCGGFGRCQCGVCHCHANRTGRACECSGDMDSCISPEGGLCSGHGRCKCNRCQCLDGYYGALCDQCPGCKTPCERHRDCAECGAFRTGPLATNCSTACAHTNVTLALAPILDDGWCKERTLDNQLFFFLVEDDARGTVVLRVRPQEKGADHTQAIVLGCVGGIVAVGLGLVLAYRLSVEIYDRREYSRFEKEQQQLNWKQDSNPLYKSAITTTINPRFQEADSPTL
The data set can be described thus: Integrin α4β7 cell adhesion assay (RPMI8866 cells on MAdCAM-1). Type of data set: cell-based. As to conditions: RPMI8866 cells, MAdCAM-1 coated plate; numeric value or bound; read-out: RPMI-8866 (α4β7)/MadCAM-1 IC50. As to the method:
MAdCAM-1 was formulated with TBS buffer to a final concentration of 2 µg/ml, 50 µl of the solution was transferred to a 96-well plate, and the plate was coated with same at 4°C overnight. The plate was washed with TBS buffer three times, then 150 µl of a blocking solution (TBS buffer containing 1% BSA) was added, and the plate was blocked at 37°C for 1 h. […] 50 µl of the cell suspension was transferred to a 96-well plate so that the cell density reached 2×10^5 cells/well. Then 1 µl of the compound at different concentrations or DMSO was added and the plate was incubated at 37°C for 1 h or 2 h. The plate was washed with TBS buffer to remove non-adherent cells. 50 µl of a substrate (4-nitrophenyl-N-acetyl-β-D-glucosaminide) was added and the plate was incubated at 37°C for 2 h. […] The IC50 value was calculated using GraphPad Prism 6 software.

As usually defined, the AUC is concentration integrated over time.

Structures are written as SMILES. pIC50: −log10 of the molar value. Where a name gives a salt, the structure may show the parent alone.

Take `Cc1cc(-c2c(C)cc(F)cc2C)cc([C@H](CC(=O)O)NC(=O)[C@H](CC(C)C)n2cc(CCN(C)C)c(C(F)(F)F)cc2=O)c1F` [Control compound A]: the α4β1/α4β7 with integrin α4β1 is listed as 50.4. Also, the CL in data set [1] (IV: 1 mg/kg) is 56.0 mL/min/kg. In data set [1] (PO: 10 mg/kg), this compound came in with an AUC of 830 ng·h/mL. In addition, the results for the “Test compound after 1h incubation Remaining% (T=60min)” value in data set [2], in data set [3] and in data set [4] were 1.8%, 31.9% and 42.6%, respectively.
With `CC#Cc1cc(-c2c(C)cccc2C)c(F)c(C(CC(=O)O)NC(=O)[C@@H](CC(C)C)n2cc(CCN(CC)CC)c(C(F)(F)F)cc2=O)c1F` (stereo partly drawn) [Trifluoroacetate salt of compound 12-2], the pIC50 on integrin α4β7 was over 9.30; with integrin α4β1, under 7.00. In addition, in the data set with integrin α4β1, the α4β1/α4β7 turned out to be 354.
The matching figures for `Cc1cc(F)cc(C)c1-c1cc(C(CC(=O)O)NC(=O)[C@H](CC(C)C)n2cc(CC3CN(CC4CC4)C3)c(C(F)(F)F)cc2=O)cc2c1CCC2` (stereo partly drawn) [Trifluoroacetate salt of compound 15-2]: over 9.00, under 7.00 and 272.
Taken in the same sequence, the figures for `CC#Cc1cc(-c2c(C)cccc2C)c(F)c(C(CC(=O)O)NC(=O)[C@H](CC(C)C)n2cc(CCC3CCCN3C)c(C(F)(F)F)cc2=O)c1F` (stereo partly drawn) [Trifluoroacetate salt of compound 29-2] were over 9.00, under 6.70 and 292.
With `Cc1cc(F)cc(C)c1-c1c(F)c(C(CC(=O)O)NC(=O)[C@H](CC(C)C)n2cc(CC3CN(C(C)C)C3)c(C(F)(F)F)cc2=O)c(F)c2c1CCC2` (stereo partly drawn) [Trifluoroacetate salt of compound 32-2], the pIC50 at integrin α4β7 was over 9.00; in the data set on integrin α4β1, under 7.00. For the same compound, the α4β1/α4β7 in the data set with integrin α4β1 is listed as 220.

The values are drawn from EP4585587A1, “PROPIONIC ACID DERIVATIVE AND USE THEREOF IN MEDICINE” (priority 2022, dated 2024).
